Test results published in patent US8691184B2, “Bcl-2/Bcl-xL inhibitors and therapeutic methods using the same” (The Regents of the University of Michigan, priority 2011, dated 2014).
“And” between values parts separate entries of the source, which are not always exact repeats. Equal entries are not always repeated. Where two headings read alike, the source gives them in different places.

How the values were obtained:
[1] = system: RS4;11 cells; assay: Cell growth assay (WST-8), RS4;11; assay type: cell-based; details: Homo sapiens, RS4-11, 96 h
Protocol: (§1) RS4;11 and H146 cells were seeded in 96-well cell culture plates at a density of 10,000 cells/well with serially diluted compounds and incubated at 37° C. in an atmosphere of 95% air and 5% CO2 for 4 days. Cell viability was determined using the WST-8 (2-(2-methoxy-4-nitrophenyl)-3-(4-nitrophenyl)-5-(2,4-disulfophenyl)-2H-tetrazolium, monosodium salt) based Cell Counting-8 Kit (Dojindo Molecular Technologies, Inc., Rockville, Md.) according to the manufacture's instruction. Briefly, WST-8 was added to each well at a final concentration of 10% (v/v), and then the plates were incubated at 37° C. for 1˜2 hours for color development. The absorbance was measured at 450 nm using a SPECTRAmax PLUS plate reader (Molecular Devices, Sunnyvale, Calif.). The half maximal inhibitory concentration (IC50) was calculated using the GraphPad Prism 5 software (GraphPad Software, La Jolla, Calif.).

[2] = system: H146 cells; assay: Cell growth assay (WST-8), H146; assay type: cell-based; details: Homo sapiens, NCI-H146, 96 h
Protocol: as §1

[3] = system: ML-2 acute myeloid leukemia (AML) cell line; assay: Cell growth assay (WST-8), ML-2; assay type: cell-based
[4] = system: H146 small-cell lung cancer cell line; assay: Cell death assay (trypan blue), H146; assay type: cell-based; details: trypan blue assay
Protocol: Cell death assay was performed using a Trypan blue exclusion test of cell viability. One million cells were seeded in 6-well plates and incubated at 37° C. in an atmosphere of 95% air and 5% CO2 with or without compounds for the indicated time points. At the end of treatment, cells were collected and centrifuged at 1000 rpm for 5 minutes. The cell pellets were re-suspended in PBS and mixed with 0.4% Trypan blue (Invitrogen) at 1:1 dilution to determine cell viability using Olympus CKX41 microscope (Olympus, Center Valley, Pa.).

[5] = system: ML-2 AML cell line; assay: Apoptosis assay (Annexin-V/PI flow cytometry), ML-2; assay type: cell-based; details: 300 nM, 24 hr
Protocol: (§2) Apoptosis assay was performed using the Annexin-V-FLUOS Staining kit (Roche Diagnostics, Indianapolis, Ind.) according to the manufacturer's instruction. Briefly, cells were treated with compounds for the indicated time points, harvested and washed with PBS. Cells were stained with Annexin V-FITC and Propidium iodide for 15 minutes at room temperature in the dark before analyzed with a BD Biosciences FACSCaliburs (Becton Dickinson).

[6] = system: RS4;11 cell line; assay: Apoptosis assay (Annexin-V/PI flow cytometry), RS4;11; assay type: cell-based; details: time- and dose-dependent, Annexin-V/PI
Protocol: as §2

[7] = system: RS4;11 cell line; assay: Western blot of PARP and caspase-3 cleavage, RS4;11; assay type: cell-based; details: as low as 100 nM, 8-hr treatment
Protocol: (§3) Cells were lysed with lysis buffer (PBS containing 1% NP40, 0.5% Na-deoxycholate, and 0.1% SDS) supplemented with protease inhibitors (α-complete, Roche). The protein extracts were quantified using a calorimetric assay (Bradford Reagent) (BioRad, Hercules, Calif.). Proteins were electrophoresed onto 4-20% SDS-PAGE gels (Invitrogen) and transferred onto polyvinylidene difluoride membranes (Bio-Rad). Following blocking in 5% milk, membranes were incubated with a specific primary antibody, washed, and incubated with horseradish peroxidase-linked secondary antibody (Pierce). The signals were visualized with the chemiluminescent horseradish peroxidase antibody detection reagent (Denville Scientific).

[8] = system: H146 cell line; assay: Western blot of PARP and caspase-3 cleavage, H146; assay type: cell-based; details: as low as 100 nM, 8-hr treatment
Protocol: as §3

[9] = system: ML-2 cell line; assay: Western blot of PARP and caspase-3 cleavage, ML-2; assay type: cell-based; details: as low as 100 nM, 8-hr treatment
Protocol: as §3

[10] = system: cellular Bcl-2/Bcl-xL; assay: Competitive pull-down against Biotin-150 in ML-2 and H146 cell lysates; assay type: binding; details: competitive experiment
[11] = target: Mcl-1 (Homo sapiens, UniProt Q07820); assay: FP-based binding assay, Mcl-1; details: for IC50: Table 4, FP-based assay, read-out: Binding Affinities Mcl-1 IC50 ± SD
[12] = target: Bcl-2 (Homo sapiens, UniProt P10415); assay: FP-based binding assay, Bcl-2
[13] = target: Bcl-xL (Homo sapiens, UniProt Q07817); assay: FP-based binding assay, Bcl-xL; details: for Ki: Binding Affinities Bcl-xL Ki ± SD (nM), Table 4, * Ki is an estimate, compound more potent than the tracer
[14] = Toxicity (maximum tolerated dose) in SCID mice; assay type: in vivo
Source text: These experiments established the maximum tolerated doses (MTD).

[15] = Table 4, 4 days, read-out: Cell Growth Inhibition (IC50 ± SD, nM) RS4;11
[16] = Table 4, 4 days, read-out: Cell Growth Inhibition (IC50 ± SD, nM) H146
[17] = Table 4, read-out: Cell Growth Inhibition (IC50 ± SD, nM) ML-2
[18] = read-out: Binding Affinities Bcl-xL IC50 ± SD, Table 4, FP-based assay

Chain of Bcl-2 (P10415 whole entry): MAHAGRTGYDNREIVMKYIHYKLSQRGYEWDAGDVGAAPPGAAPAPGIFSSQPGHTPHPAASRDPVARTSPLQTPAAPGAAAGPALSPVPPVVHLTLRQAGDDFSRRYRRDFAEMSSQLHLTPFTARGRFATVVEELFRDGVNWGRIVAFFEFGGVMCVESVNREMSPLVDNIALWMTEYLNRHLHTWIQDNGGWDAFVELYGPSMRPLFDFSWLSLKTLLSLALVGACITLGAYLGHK
Chain of Mcl-1 (Q07820 whole entry, species assumed): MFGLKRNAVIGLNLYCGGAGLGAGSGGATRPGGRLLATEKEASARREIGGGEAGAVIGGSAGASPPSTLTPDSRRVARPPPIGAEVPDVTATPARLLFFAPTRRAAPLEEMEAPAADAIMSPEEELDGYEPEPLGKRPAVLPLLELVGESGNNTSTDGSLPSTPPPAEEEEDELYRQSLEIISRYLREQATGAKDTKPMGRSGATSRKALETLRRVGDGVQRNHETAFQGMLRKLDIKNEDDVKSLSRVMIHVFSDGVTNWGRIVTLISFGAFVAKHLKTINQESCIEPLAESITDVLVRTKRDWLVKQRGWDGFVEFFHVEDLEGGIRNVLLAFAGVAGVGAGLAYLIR
Chain of Bcl-xL (Q07817 whole entry): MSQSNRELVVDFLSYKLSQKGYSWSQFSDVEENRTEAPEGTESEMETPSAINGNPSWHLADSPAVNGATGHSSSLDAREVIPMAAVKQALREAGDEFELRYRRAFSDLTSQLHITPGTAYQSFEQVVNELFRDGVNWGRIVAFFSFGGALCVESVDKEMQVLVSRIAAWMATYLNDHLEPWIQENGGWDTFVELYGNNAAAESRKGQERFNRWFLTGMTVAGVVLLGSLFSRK

Compound | IC50 [11] [nM] | IC50 [1, 15] [nM] | IC50 [2, 16] [nM] | IC50 [3, 17] [nM] | IC50 [12] [nM] | Ki [12] [nM] | IC50 [13] [nM] | Ki [13] | other results
CN(C)CC[C@H](CSc1ccccc1)Nc1ccc(S(=O)(=O)NC(=O)c2ccc(N3CCN(Cc4ccccc4-c4ccc(Cl)cc4)CC3)cc2)cc1[N+](=O)[O-] [ABT-737, reference compound] |  |  |  |  |  |  |  |  | IC50 ([1]; Table 3, 4 days, read-out: Cell Growth Inhibition (IC50 ± SD) RS4, 11): 12 ± 6 nM; IC50 ([2]; Table 3, 4 days, read-out: Cell Growth Inhibition (IC50 ± SD) H146): 62 ± 39 nM; IC50 ([3]; Table 3, read-out: Cell Growth Inhibition (IC50 ± SD) ML-2): 16 ± 2 nM; Cell death induction in H146 [4]: effectively induced cell death; ML-2 cells undergoing apoptosis [5]: about 50%; Apoptosis induction in RS4;11 [6]: highly effective in induction of apoptosis; Cleavage of PARP and caspase-3 [7]: highly effective in induction of cleavage of PARP and caspase-3; Cleavage of PARP and caspase-3 [8]: highly effective in induction of cleavage of PARP and caspase-3; Cleavage of PARP and caspase-3 [9]: highly effective in induction of cleavage of PARP and caspase-3; Blocking of interaction of cellular Bcl-2/Bcl-xL with Biotin-150 [10]: blocked the interaction of cellular Bcl-2/Bcl-xL and Biotin-150 in a dose-dependent manner
Cc1c(C(=O)O)c(-c2cccc(N3CCN(c4ccc(NS(=O)(=O)c5ccc(N[C@H](CCN6CCOCC6)CSc6ccccc6)c(S(=O)(=O)C(F)(F)F)c5)cc4)CC3)c2)c(-c2ccc(Cl)cc2)n1C [Compound 186, (R)-5-(4-chlorophenyl)-1,2-dimethyl-4-(3-(4-(4-(4-((4-morpholino-1-(phenylthio)butan-2-yl)amino)-3-((trifluoromethyl)sulfonyl)phenylsulfonamido)phenyl)piperazin-1-yl)phenyl)-1H-pyrrole-3-carboxylic acid] | > 10000 | 493 ± 64 | 430 ± 207 | 1090 ± 562 | 14 ± 3 | 3.4 ± 0.6 | 6 ± 3 | 1.6 ± 0.8 nM | 
Cc1c(C(=O)O)c(-c2cccc(N3CCN(c4ccc(NS(=O)(=O)c5ccc(N[C@H](CCN(C)C)CSc6ccccc6)c([N+](=O)[O-])c5)cc4)CC3)c2)c(-c2ccc(Cl)cc2)n1C [Compound 178, (R)-5-(4-chlorophenyl)-4-(3-(4-(4-(4-((4-(dimethylamino)-1-(phenylthio)butan-2-yl)amino)-3-nitrophenylsulfonamido)phenyl)piperazin-1-yl)phenyl)-1,2-dimethyl-1H-pyrrole-3-carboxylic acid] | > 10000 | 26 ± 4 | 87 ± 60 | 124 ± 62 | 1 ± 0.1 | < 1 |  | 1.6 ± 1 nM | IC50 [13, 18]: 6 ± 4 nM
CNC(=O)c1c(-c2cccc(N3CCN(c4ccc(NS(=O)(=O)c5ccc(N[C@H](CCN6CCOCC6)CSc6ccccc6)c([N+](=O)[O-])c5)cc4)CC3)c2)c(-c2ccc(Cl)cc2)n(C)c1C [Compound 124] | > 10000 | 89 ± 30 | 178 ± 65 | 382 ± 138 | 14 ± 2 | 3 ± 0.6 | 5 ± 1 | 1 ± 0.2 nM | 
Flu-BID: "Homemade fluorescein labeled" "BID (79-99)" peptide, fluorescent probe "in FP assays for" Mcl-1 [reference compound] |  |  |  |  |  |  |  |  | Kd ([11]; saturation FP, 2 nM probe, increasing protein, read-out: Kd of fluorescent probe to Mcl-1): 6.8 ± 1.5 nM
Cc1c(C(=O)NS(C)(=O)=O)c(-c2cccc(N3CCN(c4ccc(NS(=O)(=O)c5ccc(N[C@H](CCN(C)C)CSc6ccccc6)c([N+](=O)[O-])c5)cc4)CC3)c2)c(-c2ccc(Cl)cc2)n1C [Compound 133] | > 10000 | 87 ± 19 | 38 ± 22 | 160 ± 53 | 1 ± 0.2 | < 1 |  | 1.3 ± 0.3 nM | Weight loss at higher dose ([14]; SCID mice, 50 mg/kg): caused weight loss; IC50 [13, 18]: 5 ± 1 nM
Cc1cc(-c2cccc(N3CCN(c4ccc(NS(=O)(=O)c5ccc(N[C@H](CCN(C)C)CSc6ccccc6)c([N+](=O)[O-])c5)cc4)CC3)c2)c(-c2ccc(Cl)cc2)n1C [Compound 168, (R)—N-(4-(4-(3-(2-(4-chlorophenyl)-1,5-dimethyl-1H-pyrrol-3-yl)phenyl)piperazin-1-yl)phenyl)-4-((4-(dimethylamino)-1-(phenylthio)butan-2-yl)amino)-3-nitrobenzenesulfonamide] | > 5000 |  |  |  |  |  | 3 ± 0.4 | 3 nM and < 1 nM | 
CN(C)CC[C@@H](CSc1ccccc1)Nc1ccc(S(=O)(=O)Nc2ccc(N3CCN(c4cccc(-c5ccnn5-c5ccc(Cl)cc5)c4)CC3)cc2)cc1[N+](=O)[O-] [Compound 130] |  |  |  |  |  |  |  |  | Weight loss or other signs of toxicity ([14]; female SCID mice, intravenously, daily, 5-times a week for 2 weeks, 25 mg/kg): no or minimal weight loss or other signs of toxicity
Cc1c(C(=O)O)c(-c2cccc(N3CCN(c4ccc(NS(=O)(=O)c5ccc(N[C@H](CCN(C)C)CSc6ccccc6)c(S(=O)(=O)C(F)(F)F)c5)cc4)CC3)c2)c(-c2ccc(Cl)cc2)n1C [Compound 185, (R)-5-(4-chlorophenyl)-4-(3-(4-(4-(4-((4-(dimethylamino)-1-(phenylthio)butan-2-yl)amino)-3-((trifluoromethyl)sulfonyl)phenylsulfonamido)phenyl)piperazin-1-yl)phenyl)-1,2-dimethyl-1H-pyrrole-3-carboxylic acid] | > 10000 | 81 ± 7 | 177 ± 73 | 550 ± 204 | 2.2 ± 1.6 | < 1 | 5 ± 4 | 1.3 ± 1 nM | 
Cc1c(C(=O)O)c(-c2cccc(N3CCN(c4ccc(NS(=O)(=O)c5ccc(N[C@H](CCN6CCOCC6)CSc6ccccc6)c([N+](=O)[O-])c5)cc4)CC3)c2)c(-c2ccc(Cl)cc2)n1C [Compound 187, (R)-5-(4-chlorophenyl)-1,2-dimethyl-4-(3-(4-(4-(4-((4-morpholino-1-(phenylthio)butan-2-yl)amino)-3-nitrophenylsulfonamido)phenyl)piperazin-1-yl)phenyl)-1H-pyrrole-3-carboxylic acid] | > 10000 | 99 ± 28 | 181 ± 61 | 225 ± 49 | 2 ± 1 | < 1 | 5 ± 2 | 1.3 ± 0.6 nM | 
CNC(=O)c1c(-c2cccc(N3CCN(c4ccc(NS(=O)(=O)c5ccc(N[C@H](CCN(C)C)CSc6ccccc6)c([N+](=O)[O-])c5)cc4)CC3)c2)c(-c2ccc(Cl)cc2)n(C)c1C [Compound 125] | > 10000 | 74 ± 44 | 36 ± 26 | 215 ± 52 |  |  |  | 1.6 ± 0.8 nM | IC50 ([12]; read-out: Binding Affinities Bcl-2 IC50 ± SD, Table 4, FP-based assay): 5 ± 1 nM; Ki ([12]; read-out: Binding Affinities Bcl-2 Ki ± SD, Table 4, * Ki is an estimate, compound more potent than the tracer): 1.1 ± 0.2 nM; IC50 [13, 18]: 6 ± 3 nM
